Assay [1] addresses T1, BmCSP3 (chemosensory protein 3) (Bombyx mori, UniProt Q3LBA2).
T1 construct: residues 19–109 of UniProt entry Q3LBA2
T1 sequence (Q3LBA2 19-127): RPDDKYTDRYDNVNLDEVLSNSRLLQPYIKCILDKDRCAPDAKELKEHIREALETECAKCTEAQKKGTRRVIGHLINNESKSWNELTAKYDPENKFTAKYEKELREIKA
Put plainly: biochemical. Also noted: 1-NPN fluorescence displacement from purified BmCSP3; EC50int interpolated, Ki by Cheng-Prusoff. The settings on record: EC50int, 1-NPN displacement; read-out: EC50,int ± SE (μΜ). As for the experimental part:
(§1) The dissociation constant (Kd) of the fluorescent probe 1-NPN (N-Phenyl-1-naphthylamine) was determined in solutions containing 4 μΜ BmCSP3 in 20 mM Tris-HCl pH 8.0, 100 mM NaCl by addition of 0 το 20 μM 1-NPN. To determine the ligands’ Ki, 1-NPN displacement was measured in solutions containing 4 μΜ BmCSP3, 10 μΜ 1-NPN and ligand concentrations ranged from 0-20 μΜ and 0–32 μΜ, for the tested neurotranmiters and lipids, respectively. Control samples containing the ligand and 1-NPN, but lacking protein, were run in parallel to determine background fluorescence, which was subtracted from the experimental data. All experiments were performed in technical triplicate. Given that the bottom values never reaches zero and varied among the different experiments, the ligand concentration that reduced the initial fluorescence by 50% (EC50int) was estimated from the displacement binding curves by interpolation, using the built-in interpolation function of GraphPad Prism.

For assay [2], the target named is T1, BmCSP3 (chemosensory protein 3). Put plainly: biochemical. The arrangement: 1-NPN fluorescence displacement binding with purified BmCSP3; Ki by Cheng-Prusoff from interpolated EC50. The conditions noted are these: 4 uM BmCSP3, 10 uM 1-NPN, pH 8.0, 25 °C; read-out: Ki (μΜ). As for the experimental part:
as §1, with “triplicate. The determination of dissociation constants and the visualization of the binding curves was carried out using the non-linear regression analysis program GraphPad Prism 8 (www.graphpad.com). The Kd of 1-NPN for BmCSP3 was determined to be 5.8 μΜ by fitting the fluorescence data to a single-binding site saturation model described by the equation” for “triplicate.”, “Prism. Subsequently, the ligand’s dissociation constant (Ki) was determined using the Cheng-Prusoff equation: […]” for “Prism.”

Assay [3] shares this target. Put plainly: direct fluorescence titration of the probe with purified protein, single-site saturation fit. Format: binding.
Assay [4] has the same target. The assay is described as follows: 1-NPN fluorescence displacement binding assay with purified protein.

Turning to `NCCCC(N)C(=O)O` (racemic) [DL-Ornithine], the half-maximal effective concentration (EC50) (commonly the concentration needed to bring the measured effect to its halfway point) in assay [1] was > 20000 nM. In addition, in assay [2], the Ki (as a rule, the dissociation constant of the complex between target and ligand, obtained from inhibition or displacement) was > 20000 nM. With `c1ccc(Nc2cccc3ccccc23)cc1` [1-NPN, N-Phenyl-1-naphthylamine], the affinity in assay [3], expressed as Kd, was 5800 nM. Turning to `CC/C=C\C/C=C\C=C\[C@@H](O)CCCCCCCC(=O)O` [9(S)-HOTrE, (10E,12Z,15Z)-9-hydroxyoctadeca-10,12,15-trienoic acid], the Ki in assay [4] (read-out: Ki) came to 290 nM. For the same compound, in assay [1], the concentration giving a half-maximal response (EC50) is 790 ± 100 nM.

For `NCC(=O)O` [Glycine], in assay [1], the EC50 was > 20000 nM. Besides, the Ki in assay [2] was > 20000 nM. Consider `O=C(O)Cc1cc(O)ccc1O` [Homogentisic acid], for which the inhibition constant (Ki) in assay [4] was determined as 2500 nM. Also, the EC50 in assay [1] was 6760 ± 1580 nM. For the compound `NC(=O)CC[C@H](N)C(=O)O` [L-glutamine], the inhibitory constant (Ki) in assay [4] (read-out: Ki) was determined as 2800 nM. For the same compound, in assay [1], the EC50 was 7780 ± 1480 nM. For `Nc1ccccc1C(=O)C[C@H](N)C(=O)O` [L-kynurenine], in that order: 72 nM and 200 ± 20 nM.

With `NCCCC[C@H](N)C(=O)O` [L-lysine], in assay [1], the EC50 is > 20000 nM. In addition, the inhibitory constant (Ki) in assay [2] is > 14000 nM. With `CC(=O)NCCc1c[nH]c2ccc(O)cc12` [N-acetylserotonin], the Ki in assay [4] (read-out: Ki) amounted to 2130 nM. In assay [1], the EC50 stood at 5820 ± 1130 nM. Turning to `NCCc1c[nH]c2ccc(O)cc12` [Serotonin], the Ki in assay [4] amounted to 1800 nM. Besides, the EC50 in assay [1] was 4810 ± 1170 nM. Regarding `NCCc1c[nH]c2ccccc12` [Tryptamine], the Ki in assay [4] stood at 11 nM. In addition, the EC50 in assay [1] was 30 ± 10 nM.

The record behind these values is paper PMC12688159, “Chemosensory protein 3 is a brain host factor for the induction of enhanced-locomotory activity in the BmNPV-silkworm infection model” (PLOS Pathogens, 2025).
